Converted amounts (≈) assume the structure as drawn. The source made the active and inactive calls. No cut-off for these calls is given here. Where a SMILES comes first, the peptide text is derived from it. [ ]: non-standard residue; d: D form. Bip = N[C@@H](Cc1ccc(-c2ccccc2)cc1)C(=O)O; Phe(4-I) = N[C@@H](Cc1ccc(I)cc1)C(=O)O
Columns and labels:
Staphylococcus aureus [1] = test: Antibacterial activity against Staphylococcus aureus; type: functional
Staphylococcus aureus [2] = test: Antibacterial activity against methicillin-resistant Staphylococcus aureus; type: functional
Streptococcus pyogenes [3] = test: Antibacterial activity against Streptococcus pyogenes; type: functional
[4] = tested on: Staphylococcus epidermidis; test: Antibacterial activity against methicillin-resistant Staphylococcus epidermidis; type: functional
[5] = Toxicity assessed as hemolysis of human erythrocytes at 500 ug/mL; type: cell-based, Erythrocyte; details: read-out: Activity
Staphylococcus aureus [6] = test: Antibacterial activity against Staphylococcus aureus upto 100 ug/mL; type: functional, organism-based
Streptococcus pyogenes [7] = test: Antibacterial activity against Streptococcus pyogenes upto 100 ug/mL; type: functional, organism-based
Staphylococcus aureus [8] = test: Antibacterial activity against methicillin-resistant Staphylococcus aureus upto 100 ug/mL; type: functional, organism-based
[9] = Toxicity assessed as hemolysis of human erythrocytes; type: cell-based, Erythrocyte

Row | Compound | MIC (Staphylococcus aureus [1]) [µM] | MIC (Staphylococcus aureus [2]) [µM] | Activity (Streptococcus pyogenes [3]) | MIC [4] [µM] | further results
1 | N=C(N)NCCC[C@H](NC(=O)[C@H](Cc1ccc(-c2ccccc2-c2ccccc2)cc1)NC(=O)[C@@H](N)CCCNC(=N)N)C(N)=O | 28 (≈ 17.6 µg/mL) | 24 (≈ 15.1 µg/mL) | inactive | 6.4 (≈ 4.02 µg/mL) | –
2 | CCCCc1ccc(-c2ccc(C[C@H](NC(=O)[C@@H](N)CCCNC(=N)N)C(=O)N[C@@H](CCCNC(=N)N)C(N)=O)cc2)cc1 | 9 (≈ 5.48 µg/mL) | 7 (≈ 4.26 µg/mL) | – | 4.1 (≈ 2.5 µg/mL) | hemolysis at 500 ug/mL [5]: 40%; MIC (Streptococcus pyogenes [3]): 16 µM (≈ 9.74 µg/mL)
3 | CC(C)(C)c1ccc(-c2ccc(C[C@H](NC(=O)[C@@H](N)CCCNC(=N)N)C(=O)N[C@@H](CCCNC(=N)N)C(N)=O)cc2)cc1 | 11 (≈ 6.7 µg/mL) | 9.7 (≈ 5.91 µg/mL) | – | 4.1 (≈ 2.5 µg/mL) | MIC (Streptococcus pyogenes [3]): 25 µM (≈ 15.2 µg/mL)
4 | N=C(N)NCCC[C@H](NC(=O)[C@H](Cc1ccc(/C=C/c2ccccc2)cc1)NC(=O)[C@@H](N)CCCNC(=N)N)C(N)=O | – | – | inactive | 14 (≈ 8.1 µg/mL) | Activity (Staphylococcus aureus [1]): inactive; Activity (Staphylococcus aureus [2]): inactive
5 | N=C(N)NCCC[C@H](NC(=O)[C@H](Cc1ccc(-c2ccc3ccccc3c2)cc1)NC(=O)[C@@H](N)CCCNC(=N)N)C(N)=O | 25 (≈ 15.1 µg/mL) | 25 (≈ 15.1 µg/mL) | inactive | 5 (≈ 3.01 µg/mL) | –
6 | N=C(N)NCCC[C@H](NC(=O)[C@H](Cc1ccc(I)cc1)NC(=O)[C@@H](N)CCCNC(=N)N)C(N)=O (H-Arg-[Phe(4-I)]-Arg-NH2) | – | – | – | 116 (≈ 69.9 µg/mL) | Activity (Staphylococcus aureus [6]): inactive; Activity (Streptococcus pyogenes [7]): inactive; Activity (Staphylococcus aureus [8]): inactive
7 | N=C(N)NCCC[C@H](NC(=O)[C@H](Cc1ccc(-c2ccccc2)cc1)NC(=O)[C@@H](N)CCCNC(=N)N)C(N)=O (H-Arg-[Bip]-Arg-NH2) | – | – | – | 59 (≈ 32.6 µg/mL) | Activity (Staphylococcus aureus [6]): inactive; Activity (Streptococcus pyogenes [7]): inactive; Activity (Staphylococcus aureus [8]): inactive
8 | Cc1cc(C)cc(-c2ccc(C[C@H](NC(=O)[C@@H](N)CCCNC(=N)N)C(=O)N[C@@H](CCCNC(=N)N)C(N)=O)cc2)c1 | – | – | inactive | 9 (≈ 5.23 µg/mL) | Activity (Staphylococcus aureus [1]): inactive; Activity (Staphylococcus aureus [2]): inactive
9 | N=C(N)NCCC[C@H](NC(=O)[C@H](Cc1ccc(-c2ccc(-c3ccccc3)cc2)cc1)NC(=O)[C@@H](N)CCCNC(=N)N)C(N)=O | 9.1 (≈ 5.72 µg/mL) | 8.3 (≈ 5.22 µg/mL) | – | 4.8 (≈ 3.02 µg/mL) | EC50 [9]: 420 µg/mL (≈ 668 µM); MIC (Streptococcus pyogenes [3]): 20 µM (≈ 12.6 µg/mL)
10 | N=C(N)NCCC[C@H](NC(=O)[C@H](Cc1ccc(-c2cccc(-c3ccccc3)c2)cc1)NC(=O)[C@@H](N)CCCNC(=N)N)C(N)=O | 16 (≈ 10.1 µg/mL) | 11 (≈ 6.92 µg/mL) | inactive | 4.8 (≈ 3.02 µg/mL) | –
11 | N=C(N)NCCC[C@H](NC(=O)[C@H](Cc1ccc(-c2cccc3ccccc23)cc1)NC(=O)[C@@H](N)CCCNC(=N)N)C(N)=O | – | 29 (≈ 17.5 µg/mL) | inactive | 8.3 (≈ 5 µg/mL) | Activity (Staphylococcus aureus [1]): inactive

From ChEMBL document CHEMBL1139193, “Application of the Suzuki-Miyaura cross-coupling to increase antimicrobial potency generates promising novel antibacterials” (Bioorg Med Chem Lett, 2007)
